Results as given in PubChem BioAssay AID2060513 (Molecular Pharmacology Branch, DTP, NCI, 2025).

Test system: 299254-011-R-J1-PDC complex spheroids viability
Test: Anticancer human tumor 299254-011-R-J1-PDC patient-derived melanoma cell line growth inhibition [GQUAD]
Conditions: for IC50: curve of first compound; for viability, T/C: stronger effect = lower value; active = viability on the fitted dose curve at most 10% of control; inactive = the rest
Description: DNA G-quadruplex Stabilizer Agents in Combinations in Complex Spheroids
A high-throughput screen of multi-cell type tumor spheroids was designed to identify active combinations of DNA G-quadruplex stabilizer agents and targeted small molecules. Complex spheroids include a stromal component modeled by human endothelial cells (HUVEC) and fibroblasts modeled by human mesenchymal stem cells (MSCs). The concentration ranges selected for each drug and investigational agent were based upon clinically achievable concentrations if the clinical Cmax of the agent was known.
Compounds. The drugs and investigational agents: pidnarulex (CX-5461; NSC782164), APTO-253 (NSC789042), BRACO-19 (NSC847499), peposertib (NSC802822), ceralasertib (NSC780249), elimusertib (NSC800525), camonsertib (NSC841442), AZD-1390 (NSC803789), olaparib (NSC753686), talazoparib (NSC767125), ART-558 (NSC835418), sotorasib (NSC818433), MRTX-1133 (NSC836407), SN-38 (NSC673596), topotecan (NSC609699), etoposide (NSC141540), doxorubicin (NSC123127), gemcitabine (NSC613327), 5-fluorouracil (NSC19893), paclitaxel (NSC125973), vemurafenib (NSC761431), panobinostat (NSC761190), R-306465 (JNJ-16241199; NSC773264), adavosertib (NSC754352), TP-3654 (NSC805149), carboplatin (NSC241240), KSQ-4279 (NSC840948), and staurosporine (NSC755774) were obtained from the National Cancer Institute (NCI) Developmental Therapeutics Program Chemical Repository (34). The FDA-approved anticancer drug set is available from the NCI Developmental Therapeutics Program. […] The stock solutions were prepared in dimethyl sulfoxide (DMSO, Sigma-Aldrich, St. Louis, MO, cat. D2650) at 800-fold the tested concentration and stored at -70 degrees C prior to their use. All drugs and investigational agents were tested over a range starting from a high concentration at or near the clinical Cmax and decreasing in half-log increments. If the clinical Cmax for an agent had not been determined, the highest concentration tested was 10 microM.
2.3 Cell Culture. All cells were maintained in an incubator at 37 degrees C and 5% CO2 with 95% humidity. The PDC lines were cultured according to standard operating procedures established by the NCI PDMR. All PDCs were thawed and cultured in Matrigel-coated flasks prepared with a working solution of 1X Ham's F-12 nutrient mix, without supplementation (Invitrogen, cat. 11765054), 100 U/mL penicillin-streptomycin (Invitrogen, cat. 15140122), and 2.5% Matrigel (Corning Inc., cat. 354248) for the first three passages. The 857933-349-R-J2-PDC line was cultured in 6C/Colon 1B media, which includes advanced DMEM/F-12 (Thermo Fisher Scientific, cat. 12634028), 10 mM HEPES (Thermo Fisher Scientific, cat. 15630080), 1X GlutaMAX supplement (Thermo Fisher Scientific, cat. 35050061), 0.1 mg/mL primocin (InvivoGen, cat. ant-pm-2), 10% defined fetal bovine serum, heat inactivated (HyClone Laboratories Inc., cat. SH30070.03HI), 50% L-WRN conditioned media (ATCC, cat. CRL-3276), 1.25 mM N-Acetyl-L-cysteine (Sigma-Aldrich, cat. A9165), 10 mM nicotinamide (Sigma-Aldrich, cat. N0636), 1X B-27 supplement (Thermo Fisher Scientific, cat. 17504044), 1X N-2 supplement (Thermo Fisher Scientific, cat. 17502048), 10 microM Y-27632 dihydrochloride (Tocris Bioscience, cat. 1254), and 50 ng/mL human EGF recombinant protein (Thermo Fisher Scientific, cat. PHG0311). The 485176-168-R4-J1-PDC line was cultured in Panc media, which includes all 6C/Colon 1B media components plus 100 ng/mL human FGF-10 (Thermo Fisher Scientific, cat. 100-26), 500 nM SB-431542 (Selleckchem, cat. S1067), and gastrin (Tocris, cat. 3006).
[…]

[1] = second compound 0.0316 µM, first compound 0.0316 µM
[2] = second compound 0.0316 µM, first compound 0.1 µM
[3] = second compound 0.0316 µM, first compound 0.316 µM
[4] = second compound 0.0316 µM, first compound 1 µM
[5] = second compound 0.0316 µM, first compound 3.16 µM
[6] = second compound 0.0316 µM, first compound 10 µM
[7] = second compound 0.1 µM, first compound 0.0316 µM
[8] = second compound 0.1 µM, first compound 0.1 µM
[9] = second compound 0.1 µM, first compound 0.316 µM
[10] = second compound 0.1 µM, first compound 1 µM
[11] = second compound 0.1 µM, first compound 3.16 µM
[12] = second compound 0.1 µM, first compound 10 µM
[13] = second compound 0.316 µM, first compound 0.0316 µM
[14] = second compound 0.316 µM, first compound 0.1 µM
[15] = second compound 0.316 µM, first compound 0.316 µM
[16] = second compound 0.316 µM, first compound 1 µM
[17] = second compound 0.316 µM, first compound 3.16 µM
[18] = second compound 0.316 µM, first compound 10 µM
[19] = second compound 1 µM, first compound 0.0316 µM
[20] = second compound 1 µM, first compound 0.1 µM
[21] = second compound 1 µM, first compound 0.316 µM
[22] = second compound 1 µM, first compound 1 µM
[23] = second compound 1 µM, first compound 3.16 µM
[24] = second compound 1 µM, first compound 10 µM
[25] = second compound 3.16 µM, first compound 0.0316 µM
[26] = second compound 3.16 µM, first compound 0.1 µM
[27] = second compound 3.16 µM, first compound 0.316 µM
[28] = second compound 3.16 µM, first compound 1 µM
[29] = second compound 3.16 µM, first compound 3.16 µM
[30] = second compound 3.16 µM, first compound 10 µM
[31] = second compound 10 µM, first compound 0.0316 µM
[32] = second compound 10 µM, first compound 0.1 µM
[33] = second compound 10 µM, first compound 0.316 µM
[34] = second compound 10 µM, first compound 1 µM
[35] = second compound 10 µM, first compound 3.16 µM
[36] = second compound 10 µM, first compound 10 µM
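Also: spheroids exposed to the agents for seven days before readout.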
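For viability, T/C in this document: percent viability relative to DMSO vehicle control wells = 100%.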

CC1COCCN1c1cc(C2(S(C)(=N)=O)CC2)nc(-c2ccnc3[nH]ccc23)n1 (stereo not drawn) + Cc1[nH]c2ccc(F)cc2c1-c1nc2c3cccnc3c3ncccc3c2[nH]1
2460 nM: IC50 (second compound 10 µM)
4710 nM: IC50 (second compound 0.316 µM)
4530 nM: IC50 (second compound 1 µM)
2910 nM: IC50 (second compound 0.0316 µM)
3170 nM: IC50 (second compound 3.16 µM)
inactive: viability, T/C [1] 105% | viability, T/C [2] 86.6% | viability, T/C [3] 110% | viability, T/C [4] 67.8% | viability, T/C [5] 53.6% | viability, T/C [6] 31.8% | viability, T/C [7] 85% | viability, T/C [8] 95.9% | viability, T/C [9] 100% | viability, T/C [10] 87.4% | viability, T/C [11] 64% | viability, T/C [12] 35.8% | viability, T/C [13] 78.7% | viability, T/C [14] 96.4% | viability, T/C [15] 114% | viability, T/C [16] 87.9% | viability, T/C [17] 64.2% | viability, T/C [18] 24% | viability, T/C [19] 91% | viability, T/C [20] 90.3% | viability, T/C [21] 96.1% | viability, T/C [22] 111% | viability, T/C [23] 59.4% | viability, T/C [24] 29.3% | viability, T/C [25] 108% | viability, T/C [26] 99.2% | viability, T/C [27] 97.7% | viability, T/C [28] 97.1% | viability, T/C [29] 50% | viability, T/C [30] 18% | viability, T/C [31] 127% | viability, T/C [32] 83% | viability, T/C [33] 97.5% | viability, T/C [34] 92% | viability, T/C [35] 38.3% | viability, T/C [36] 14.1%
5580 nM: IC50 (second compound 0.1 µM)

C=CC(=O)N1CCN(c2nc(=O)n(-c3c(C)ccnc3C(C)C)c3nc(-c4c(O)cccc4F)c(F)cc23)C(C)C1 (stereo not drawn) + Cc1cnc(CNC(=O)c2c(=O)c3ccc(N4CCCN(C)CC4)nc3n3c2sc2ccccc23)cn1
inactive: viability, T/C [1] 73.3% | viability, T/C [2] 71.1% | viability, T/C [3] 69.3% | viability, T/C [4] 58.3% | viability, T/C [5] 59.4% | viability, T/C [6] 76.8% | viability, T/C [7] 67.8% | viability, T/C [8] 74.9% | viability, T/C [9] 64.1% | viability, T/C [10] 57.6% | viability, T/C [11] 60.7% | viability, T/C [12] 78.2% | viability, T/C [13] 93% | viability, T/C [14] 72.9% | viability, T/C [15] 60.8% | viability, T/C [16] 67.4% | viability, T/C [17] 65.1% | viability, T/C [18] 70.3% | viability, T/C [19] 73.8% | viability, T/C [20] 65.3% | viability, T/C [21] 65.2% | viability, T/C [22] 67.3% | viability, T/C [23] 83.7% | viability, T/C [24] 61.2% | viability, T/C [25] 76.3% | viability, T/C [26] 78.9% | viability, T/C [27] 63.5% | viability, T/C [28] 69.8% | viability, T/C [29] 74.6% | viability, T/C [30] 52.9%
< 31.6 nM: IC50 (second compound 10 µM)
> 10000 nM: IC50 (second compound 0.0316 µM) | IC50 (second compound 0.1 µM) | IC50 (second compound 0.316 µM) | IC50 (second compound 1 µM) | IC50 (second compound 3.16 µM)
active: viability, T/C [31] 0.4% | viability, T/C [32] 0.46% | viability, T/C [33] 8.66% | viability, T/C [34] 0.41% | viability, T/C [35] 0.41% | viability, T/C [36] 0.36%

CC1COCCN1c1cc(C2(O)CC3CCC(C2)O3)c2cnn(-c3ccn[nH]3)c2n1 (stereo not drawn) + Cc1[nH]c2ccc(F)cc2c1-c1nc2c3cccnc3c3ncccc3c2[nH]1
178 nM: IC50 (second compound 0.316 µM)
109 nM: IC50 (second compound 3.16 µM)
83.8 nM: IC50 (second compound 10 µM)
125 nM: IC50 (second compound 1 µM)
inactive: viability, T/C [1] 83.2% | viability, T/C [2] 54.7% | viability, T/C [3] 31.3% | viability, T/C [4] 14.4% | viability, T/C [5] 12.2% | viability, T/C [7] 72.7% | viability, T/C [8] 60.4% | viability, T/C [9] 20.7% | viability, T/C [10] 14.7% | viability, T/C [11] 14.4% | viability, T/C [12] 7.02% | viability, T/C [13] 77.3% | viability, T/C [14] 76.6% | viability, T/C [15] 23.8% | viability, T/C [16] 19.6% | viability, T/C [17] 12.6% | viability, T/C [18] 7.48% | viability, T/C [19] 73.7% | viability, T/C [20] 55.8% | viability, T/C [21] 30.4% | viability, T/C [22] 22.1% | viability, T/C [23] 13.7% | viability, T/C [25] 84.5% | viability, T/C [26] 52.7% | viability, T/C [27] 22.5% | viability, T/C [28] 16% | viability, T/C [29] 14% | viability, T/C [30] 6.07% | viability, T/C [31] 73% | viability, T/C [32] 46.9% | viability, T/C [33] 21.8% | viability, T/C [34] 15.1%
active: viability, T/C [6] 8.75% | viability, T/C [24] 7.91% | viability, T/C [35] 9.33% | viability, T/C [36] 4.43%
127 nM: IC50 (second compound 0.0316 µM)
135 nM: IC50 (second compound 0.1 µM)

CC1COCCN1c1cc(-c2ccnn2C)c2ccnc(-c3ccn[nH]3)c2n1 (stereo not drawn) + CN(C)c1ccc(Nc2c3ccc(NC(=O)CCN4CCCC4)cc3nc3cc(NC(=O)CCN4CCCC4)ccc23)cc1
inactive: viability, T/C [1] 84.5% | viability, T/C [2] 67.2% | viability, T/C [3] 35% | viability, T/C [4] 17.3% | viability, T/C [5] 13% | viability, T/C [6] 11.2% | viability, T/C [7] 85.5% | viability, T/C [8] 74.9% | viability, T/C [9] 29.6% | viability, T/C [10] 20% | viability, T/C [11] 14.2% | viability, T/C [12] 13% | viability, T/C [13] 91.8% | viability, T/C [14] 77.1% | viability, T/C [15] 33.4% | viability, T/C [16] 19% | viability, T/C [17] 15.1% | viability, T/C [18] 11.8% | viability, T/C [19] 107% | viability, T/C [20] 71.3% | viability, T/C [21] 36.1% | viability, T/C [22] 21.2% | viability, T/C [23] 14.9% | viability, T/C [24] 13.8% | viability, T/C [25] 102% | viability, T/C [26] 73.7% | viability, T/C [27] 37% | viability, T/C [28] 24.5% | viability, T/C [29] 17.9% | viability, T/C [30] 15.7% | viability, T/C [31] 80.6% | viability, T/C [32] 74.4% | viability, T/C [33] 37.3% | viability, T/C [34] 23.6% | viability, T/C [35] 18.8% | viability, T/C [36] 16.9%
189 nM: IC50 (second compound 0.1 µM)
185 nM: IC50 (second compound 0.0316 µM)
206 nM: IC50 (second compound 0.316 µM)
215 nM: IC50 (second compound 3.16 µM) | IC50 (second compound 10 µM)
202 nM: IC50 (second compound 1 µM)
